Columns and labels:
Bfl-1 [1] = molecular target: T1, Bfl-1 (Homo sapiens, UniProt Q16548); experiment: Bfl-1 fluorescence polarization assay (FPA/FP), competition with FITC-Bid BH3 peptide; assay type: binding; conditions: for Bfl-1 FP assay, activity in words: Bfl-1/FITC-Bid
T1 construct: lacking their C-terminal transmembrane domains (approximately last 20 amino-acids); made in house; host or cells: XL-1 Blue cells (E. coli), pGEX 4T-1
T1 sequence (Q16548 1-155 limits assumed): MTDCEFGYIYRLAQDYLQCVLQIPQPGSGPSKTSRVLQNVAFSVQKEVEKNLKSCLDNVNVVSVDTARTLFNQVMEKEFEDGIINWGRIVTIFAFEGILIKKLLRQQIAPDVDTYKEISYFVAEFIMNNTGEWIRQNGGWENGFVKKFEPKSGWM
Experimental: Fluorescence polarization assays (FPA). To determine the binding affinity of anti-apoptotic Bcl-2 polypeptides to FITC-conjugated Bid BH3 peptide, fluorescence polarization assays (FPAs) were performed according to published procedures (Zhai et al., Biochem. J. 376:229-236 (2003)). […] Fluorescence polarization was measured after 10 min using an Analyst™ AD Assay Detection System (LJL Biosystem, Sunnyvale, Calif.) in phosphate-buffered saline (PBS) (pH 7.4). The IC50 determinations were performed using GraphPad Prism software (GraphPad, Inc., San Diego, Calif.).
Competition assays. Using the same procedure outlined above, 100 nM of GST-Bfl-1 protein were incubated with the compounds at 50 μM concentration for 30 min. Then, 5 nM of FITC-Bid BH3 peptide was added. Fluorescence polarization was measured after 10 min. […]

Bfl-1 [2] = molecular target: T1, Bfl-1; experiment: Bfl-1 TR-FRET assay (FITC-Bid, Tb-anti-GST antibody); assay type: binding; conditions: Tables 3-5; read-out: Bfl-1 TR FRET IC50
Experimental: TR-FRET assay. For confirmation of FPA results, a TR-FRET assay utilizing terbium- (Tb-) labeled anti-GST antibody (Th-Ab) was developed. […] The reaction mixture was preincubated for 1 h, and TR-fluorescence (TRF) was measured on an M5 plate reader (Molecular Devices) using excitation at 340 nm and emission at […]. The measurements were averaged from 5 readings during 1 ms after an initial delay 0.1 ms. TR-FRET signal was calculated as the ratio of TR-Fluorescence at 520 nm to TR-Fluorescence at […].
For Bfl-1 TR-FRET assays, Bfl-1 protein and FITC-Bid peptide (FITC-Ahx-[…]) (SEQ ID NO: 1) were utilized. Terbium-anti-GST antibody (Tb-anti-GST Ab) was obtained from Invitrogen (San Diego Calif.). The assay buffer contained 25 mM Bis-Tris, pH 7.0, 1 mM TCEP, and 0.005% Tween 20. The Tb-Ab buffer contained 2.5 nM Tb-anti-GST antibody in assay buffer. The Bfl-1/Th-Ab working solution contained 5 nM Bfl-1 in Th-Ab assay buffer. The solution was prepared fresh and kept on ice prior to use. The FITC-Bid working solution contained 5.6 nM FITC-Bid in assay buffer.
For the Bfl-1 TR-FRET dose-response screening protocol, dose-response curves contained 10 concentrations of compounds obtained using 2-fold serial dilution. Compounds were serially diluted in 100% DMSO, and then diluted with water to 10% final DMSO concentration. A 4 μl aliquot of compounds in 10% DMSO was transferred into columns 3-22 of Greiner 384-well white small-volume plates. Columns 1-2 and 23-24 contained 4 μL of 10% DMSO.
Columns 1-2 were reserved for positive controls, and 8 μL of Th-Ab buffer was added using a WellMate bulk dispenser (Matrix). An aliquot of 8 μL of Bfl-1/Th-Ab working solution was added to columns 3-24 of Greiner 384 well white plates using a WellMate bulk dispenser (Matrix). Columns 23-24 represented negative control wells. Plates were incubated for 1 h at 4° C. An 8 μL aliquot of freshly prepared FITC-Bid working solution was added to the whole plate using WellMate bulk dispenser (Matrix). Plates were incubated for 4 h at room temperature protected from direct light. Fluorescence was measured on the M5 plate reader (excitation: 340 nm, emission: 490 and 520 nm, cutoff: 475 and 515 nm, respectively) in Time Resolved (TR) mode with signal integrated for 1 ms after initial delay of 0.1 ms. TR-FRET signal was calculated as the ratio of TR-Fluorescence at 520 nm to TR-Fluorescence at 490 nm. Data analysis was performed using a sigmoidal dose-response equation through non-linear regression.

Microsomal stability = assay type: in vitro ADME; conditions: rat liver microsomes, 37.5° C.
Experimental: CID-779754 (MLS-0067130) has a metabolic half life of >60 min in the presence of rat liver microsomes when incubated at 37.5° C. (FIG. 6A), with 64% of the compound remaining at 1 hour. The plasma stability of CID-779754 is also good, with 79% remaining after incubating at 37.5° C. for 1 hour in fresh rat plasma (FIG. 6B).

Solubility = conditions: aqueous buffer
Experimental: Compounds were screened for inhibitory activity of Bfl-1 essentially as described in Example 1, and including a 1 h incubation of Bfl-1 in the presence of compounds and a 4 h incubation after the subsequent addition of the fluorescent probe. […] The assay was screened against the entire NIH small molecule library, which at the time consisted of 65,000 compounds. […] Controls included an “artifact” plate on which a GAPDH assay was performed to check selectivity, and a solubility plate on which a solubility assay was performed to test solubility.

[3] = system: cord blood derived human mast cells (CBMCs); experiment: LDH release cytotoxicity assay; assay type: cell-based
Experimental: To investigate whether a Bfl-1 inhibitor is cytotoxic to cord blood derived human mast cells (CBMCs), a […] assay based on the measurement of lactate dehydrogenase (LDH) activity is used. CBMC are cultured with various concentrations of the Bfl-1 inhibitor, and LDH release into the culture supernatant is measured. […] The positive control in FIG. 8 is a control included in the LDH kit. Thus, CID-779754 is not cytotoxic to in vitro developed human mast cells.

Compound: CN(C)C1=C(Cl)C(=O)N(c2ccc(Cl)c(Cl)c2)C1=O [CID-779754, 3-chloro-1-(3,4-dichlorophenyl)-4-(dimethylamino)-1H-pyrrole-2,5-dione]
- Bfl-1 FP assay, activity in words (Bfl-1 [1]): binds reversibly and competes
- Bfl-1 FP assay, activity in words (Bfl-1 [1]; listed as MLS-0067130): equipotent with CID-1180676
- IC50 (Bfl-1 [1]; Bfl-1 FP IC50 (uM), Tables 3-5): 0.46 µM
- IC50 (Bfl-1 [2]): 570 nM
- compound remaining at 1 hour (Microsomal stability): 64%
- half-life (Microsomal stability; read-out: metabolic half life): > 60 min
- solubility (Solubility): ≤ 100 µM
- cytotoxicity (LDH release) ([3]; 0.1-100 μM, n=4 donors): no cytoxicity
- toxicity to normal human cells ([3]; normal human cells): not toxic to normal human cells
